Where two headings read alike, the source gives them in different places.
Key:
[1] = molecular target: T1, Tyro3 (Homo sapiens, UniProt Q06418); experiment: Microfluidic capillary electrophoresis; assay type: biochemical
T1 sequence (Q06418 41-890): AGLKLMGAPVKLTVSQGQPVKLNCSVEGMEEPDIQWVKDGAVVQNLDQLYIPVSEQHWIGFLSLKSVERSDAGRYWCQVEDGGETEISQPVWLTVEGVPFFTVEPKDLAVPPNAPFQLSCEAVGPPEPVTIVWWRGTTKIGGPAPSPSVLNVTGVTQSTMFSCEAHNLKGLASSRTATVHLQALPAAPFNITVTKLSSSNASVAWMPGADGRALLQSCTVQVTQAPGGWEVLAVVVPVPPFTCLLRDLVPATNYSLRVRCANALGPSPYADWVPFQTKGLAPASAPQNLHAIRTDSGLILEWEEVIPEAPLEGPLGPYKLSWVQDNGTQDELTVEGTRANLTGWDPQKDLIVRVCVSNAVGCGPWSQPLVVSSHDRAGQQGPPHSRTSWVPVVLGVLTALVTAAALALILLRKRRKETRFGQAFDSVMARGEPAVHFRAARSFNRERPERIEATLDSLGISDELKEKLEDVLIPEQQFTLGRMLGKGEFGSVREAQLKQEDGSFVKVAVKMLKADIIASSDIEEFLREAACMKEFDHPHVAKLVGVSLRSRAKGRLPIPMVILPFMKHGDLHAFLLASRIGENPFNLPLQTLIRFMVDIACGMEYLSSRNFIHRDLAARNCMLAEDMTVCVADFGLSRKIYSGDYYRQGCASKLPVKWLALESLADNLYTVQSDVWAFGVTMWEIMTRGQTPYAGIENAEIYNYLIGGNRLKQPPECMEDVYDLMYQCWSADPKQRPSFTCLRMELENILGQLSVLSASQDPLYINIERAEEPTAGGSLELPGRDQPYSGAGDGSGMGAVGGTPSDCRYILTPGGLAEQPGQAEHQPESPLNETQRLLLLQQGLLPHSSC

[2] = molecular target: T2, Axl (Homo sapiens, UniProt P30530); experiment: Microfluidic capillary electrophoresis; assay type: biochemical
T2 sequence (P30530 26-894): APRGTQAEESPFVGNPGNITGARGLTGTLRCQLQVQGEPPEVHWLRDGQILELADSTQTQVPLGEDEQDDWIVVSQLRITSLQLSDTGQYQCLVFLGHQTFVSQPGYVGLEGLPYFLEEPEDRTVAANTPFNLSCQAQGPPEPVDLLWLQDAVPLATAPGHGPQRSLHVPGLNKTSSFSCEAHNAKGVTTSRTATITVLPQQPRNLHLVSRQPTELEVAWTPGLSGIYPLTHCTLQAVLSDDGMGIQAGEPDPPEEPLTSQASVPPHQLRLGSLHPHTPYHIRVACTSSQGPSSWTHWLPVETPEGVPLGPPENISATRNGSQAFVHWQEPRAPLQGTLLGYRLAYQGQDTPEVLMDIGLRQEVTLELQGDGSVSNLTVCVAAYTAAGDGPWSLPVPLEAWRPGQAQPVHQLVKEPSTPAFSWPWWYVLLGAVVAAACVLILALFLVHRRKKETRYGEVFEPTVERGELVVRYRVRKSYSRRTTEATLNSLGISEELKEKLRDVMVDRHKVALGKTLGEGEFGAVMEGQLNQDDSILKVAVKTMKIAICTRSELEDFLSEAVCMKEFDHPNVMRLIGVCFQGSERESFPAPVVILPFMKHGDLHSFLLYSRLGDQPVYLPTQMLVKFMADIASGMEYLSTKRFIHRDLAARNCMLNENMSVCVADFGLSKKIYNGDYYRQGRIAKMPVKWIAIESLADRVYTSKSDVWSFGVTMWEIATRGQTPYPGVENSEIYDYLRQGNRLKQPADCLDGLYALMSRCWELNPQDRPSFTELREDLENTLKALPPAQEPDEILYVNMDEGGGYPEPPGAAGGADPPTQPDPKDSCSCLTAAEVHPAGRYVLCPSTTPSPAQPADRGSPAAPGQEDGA

[3] = molecular target: T3, Mer (Homo sapiens, UniProt Q12866); experiment: Microfluidic capillary electrophoresis; assay type: biochemical
T3 sequence (Q12866 21-999): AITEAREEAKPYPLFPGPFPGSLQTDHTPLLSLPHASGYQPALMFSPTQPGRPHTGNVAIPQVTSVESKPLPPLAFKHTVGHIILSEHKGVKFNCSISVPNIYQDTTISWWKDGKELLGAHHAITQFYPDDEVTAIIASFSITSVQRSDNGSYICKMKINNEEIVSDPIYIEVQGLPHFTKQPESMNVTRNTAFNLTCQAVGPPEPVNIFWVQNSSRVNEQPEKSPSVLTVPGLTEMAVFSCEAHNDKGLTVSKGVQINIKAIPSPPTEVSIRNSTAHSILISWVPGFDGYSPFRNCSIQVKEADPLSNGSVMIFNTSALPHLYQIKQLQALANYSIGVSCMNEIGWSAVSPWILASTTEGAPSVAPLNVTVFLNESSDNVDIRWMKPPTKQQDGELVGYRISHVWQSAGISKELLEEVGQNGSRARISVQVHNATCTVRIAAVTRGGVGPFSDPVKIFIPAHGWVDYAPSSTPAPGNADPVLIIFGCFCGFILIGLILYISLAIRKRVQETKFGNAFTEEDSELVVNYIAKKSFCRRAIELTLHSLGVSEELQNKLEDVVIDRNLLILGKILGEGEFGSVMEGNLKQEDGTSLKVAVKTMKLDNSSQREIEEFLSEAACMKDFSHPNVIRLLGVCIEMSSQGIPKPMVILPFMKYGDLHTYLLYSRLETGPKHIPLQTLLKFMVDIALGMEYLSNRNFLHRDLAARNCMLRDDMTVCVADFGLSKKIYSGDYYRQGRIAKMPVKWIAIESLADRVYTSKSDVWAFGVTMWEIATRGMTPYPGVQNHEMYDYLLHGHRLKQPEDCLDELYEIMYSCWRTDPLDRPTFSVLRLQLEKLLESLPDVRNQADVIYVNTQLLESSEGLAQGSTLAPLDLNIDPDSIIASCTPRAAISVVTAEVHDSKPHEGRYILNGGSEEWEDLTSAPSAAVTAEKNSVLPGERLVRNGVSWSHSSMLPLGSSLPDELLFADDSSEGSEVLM

[4] = tested on: Colo699 cells; experiment: Soft agar colony formation assay, Colo699; settings: 2 weeks
[5] = tested on: A549 cells; experiment: Soft agar colony formation assay, A549; settings: 2 weeks
[6] = molecular target: hERG channel (Homo sapiens, UniProt Q12809); experiment: hERG PatchXpress assay / hERG binding assay; settings: read-out: hERG EC50
hERG channel, sequence (Q12809 whole entry): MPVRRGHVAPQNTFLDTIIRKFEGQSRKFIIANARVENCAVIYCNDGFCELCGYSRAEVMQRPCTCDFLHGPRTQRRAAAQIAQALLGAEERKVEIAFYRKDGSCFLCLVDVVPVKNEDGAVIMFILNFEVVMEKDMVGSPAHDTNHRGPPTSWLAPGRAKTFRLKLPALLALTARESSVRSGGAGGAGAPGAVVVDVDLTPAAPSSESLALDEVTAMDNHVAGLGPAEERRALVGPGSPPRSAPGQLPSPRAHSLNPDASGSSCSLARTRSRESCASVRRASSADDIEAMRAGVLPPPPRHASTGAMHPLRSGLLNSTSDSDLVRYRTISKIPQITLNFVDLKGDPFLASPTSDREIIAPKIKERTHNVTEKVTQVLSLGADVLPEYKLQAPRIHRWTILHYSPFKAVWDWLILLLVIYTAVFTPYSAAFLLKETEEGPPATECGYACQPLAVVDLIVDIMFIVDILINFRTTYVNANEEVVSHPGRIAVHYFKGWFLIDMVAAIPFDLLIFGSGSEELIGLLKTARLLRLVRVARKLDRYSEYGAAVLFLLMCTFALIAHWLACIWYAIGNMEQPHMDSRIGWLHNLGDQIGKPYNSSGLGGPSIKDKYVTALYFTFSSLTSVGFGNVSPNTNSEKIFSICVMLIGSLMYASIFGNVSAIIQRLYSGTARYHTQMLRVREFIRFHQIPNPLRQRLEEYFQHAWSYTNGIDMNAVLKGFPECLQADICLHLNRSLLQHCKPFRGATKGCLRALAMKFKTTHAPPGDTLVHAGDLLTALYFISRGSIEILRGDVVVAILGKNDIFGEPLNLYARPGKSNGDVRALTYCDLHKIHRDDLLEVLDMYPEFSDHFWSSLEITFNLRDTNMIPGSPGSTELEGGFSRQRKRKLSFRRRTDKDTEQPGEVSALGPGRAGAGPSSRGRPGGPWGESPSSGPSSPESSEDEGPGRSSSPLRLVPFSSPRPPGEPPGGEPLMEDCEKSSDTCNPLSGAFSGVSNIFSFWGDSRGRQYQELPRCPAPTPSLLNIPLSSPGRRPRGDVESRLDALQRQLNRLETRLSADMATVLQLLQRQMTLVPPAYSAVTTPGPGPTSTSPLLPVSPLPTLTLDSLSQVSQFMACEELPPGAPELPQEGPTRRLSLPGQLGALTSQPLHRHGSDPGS

Row | Structure (SMILES) | IC50 [1] [µM] | IC50 [2] [µM] | also measured
1 | CCCCNc1ncc2c(-c3ccc(S(=O)(=O)NC)cc3)nn(C[C@H]3CC[C@H](O)CC3)c2n1 [Compound 7, 4-(1-((trans-4-Hydroxycyclohexyl)methyl)-6-(butylamino)-1H-pyrazolo[3,4-d]pyrimidin-3-yl)-N-methylbenzenesulfonamide] | 0.13 | 0.14 | 
2 | CCCCNc1ncc2c(-c3ccc(S(=O)(=O)Nc4ccc(F)cc4)cc3)nn([C@H]3CC[C@H](O)CC3)c2n1 [Compound 27, trans-4-(6-(Butylamino)-1-(4-hydroxycyclohexyl)-1H-pyrazolo[3,4-d]pyrimidin-3-yl)-N-(4-fluorophenyl)benzenesulfonamide] | 0.29 | 6.5 | 
3 | CCCCNc1ncc2c(-c3ccc(S(=O)(=O)NC)cc3)nn(C[C@H]3CC[C@H](N)CC3)c2n1 [Compound 2, 4-(1-((trans-4-Aminocyclohexyl)methyl)-6-(butylamino)-1H-pyrazolo[3,4-d]pyrimidin-3-yl)-N-methylbenzenesulfonamide] | 0.027 | 0.059 | 
4 | CCCCNc1ncc2c(-c3ccc(S(=O)(=O)N4CCCC4)cc3)nn([C@H]3CC[C@H](O)CC3)c2n1 [Compound 34, trans-4-(6-(Butylamino)-3-(4-(pyrrolidin-1-ylsulfonyl)phenyl)-1H-pyrazolo[3,4-d]pyrimidin-1-yl)cyclohexanol] |  |  | IC50 ([1]; read-out: IC50 Tyro3, ATP at Km, mean of two or more independent assays): 0.022 µM; IC50 ([3]; read-out: IC50 Mer, ATP at Km, mean of two or more independent assays): 0.00065 µM; IC50 ([2]; read-out: IC50 Axl, ATP at Km, mean of two or more independent assays): 0.046 µM
5 | CCCCNc1ncc2c(-c3ccc(S(=O)(=O)N4CCOCC4)cc3)nn([C@H]3CC[C@H](O)CC3)c2n1 [Compound 35, trans-4-(6-(Butylamino)-3-(4-(morpholinosulfonyl)phenyl)-1H-pyrazolo[3,4-d]pyrimidin-1-yl)cyclohexanol] |  |  | colony formation in soft agar [4]: inhibited colony formation; colony formation in soft agar [5]: inhibited colony formation
6 | CCCCNc1ncc2c(-c3ccc(NS(C)(=O)=O)cc3)nn([C@H]3CC[C@H](O)CC3)c2n1 [Compound 18, trans-N-(4-(6-(Butylamino)-1-(4-hydroxycyclohexyl)-1H-pyrazolo[3,4-d]pyrimidin-3-yl)phenyl)methanesulfonamide] | 0.035 | 0.11 | 
7 | CCCCNc1ncc2c(-c3ccc(F)cc3)nn(CC3CCC(N)CC3)c2n1 (stereo not drawn) [UNC569] |  |  | EC50 [6]: 1.7 µM
8 | CCCCNc1ncc2c(-c3ccc(S(=O)(=O)N4CCC(C(=O)N5CCOCC5)CC4)cc3)nn([C@H]3CC[C@H](O)CC3)c2n1 [Compound 36, trans-(1-((4-(6-(Butylamino)-1-(4-hydroxycyclohexyl)-1H-pyrazolo[3,4-d]pyrimidin-3-yl)phenyl)sulfonyl)piperidin-4-yl)(morpholino)methanone] | 0.076 | 0.023 | IC50 [3]: 0.0014 µM

More lines, main results first:

Row | IC50 [1] [µM] | IC50 [2] [µM] | Structure (SMILES) | also measured
9 | 0.068 | 0.12 | CCCCNc1ncc2c(-c3ccc(S(=O)(=O)NC(C)C)cc3)nn([C@H]3CC[C@H](O)CC3)c2n1 [Compound 22, trans-4-(6-(Butylamino)-1-(4-hydroxycyclohexyl)-1H-pyrazolo[3,4-d]pyrimidin-3-yl)-N-isopropylbenzenesulfonamide] | 
10 | 0.035 | 0.062 | CCCCNc1ncc2c(-c3ccc(S(=O)(=O)NCCC)cc3)nn([C@H]3CC[C@H](O)CC3)c2n1 [Compound 21, trans-4-(6-(Butylamino)-1-(4-hydroxycyclohexyl)-1H-pyrazolo[3,4-d]pyrimidin-3-yl)-N-propylbenzenesulfonamide] | 
11 | 0.031 | 0.067 | CCCCNc1ncc2c(-c3ccc(S(=O)(=O)NC4CCCC4)cc3)nn([C@H]3CC[C@H](O)CC3)c2n1 [Compound 24, trans-4-(6-(Butylamino)-1-(4-hydroxycyclohexyl)-1H-pyrazolo[3,4-d]pyrimidin-3-yl)-N-cyclopentylbenzenesulfonamide] | 
12 | 0.054 | 0.029 | CCCCNc1ncc2c(-c3ccc(S(N)(=O)=O)cc3)nn([C@H]3CC[C@H](O)CC3)c2n1 [Compound 20, trans-4-(6-(Butylamino)-1-(4-hydroxycyclohexyl)-1H-pyrazolo[3,4-d]pyrimidin-3-yl)benzenesulfonamide] | IC50 [3]: 0.0014 µM
13 | 0.045 | 0.35 | CCCCNc1ncc2c(-c3ccc(S(=O)(=O)NC4CCCCC4)cc3)nn([C@H]3CC[C@H](O)CC3)c2n1 [Compound 25, trans-4-(6-(Butylamino)-1-(4-hydroxycyclohexyl)-1H-pyrazolo[3,4-d]pyrimidin-3-yl)-N-cyclohexylbenzenesulfonamide] | 
14 | 0.028 | 0.069 | CCCCNc1ncc2c(-c3ccc(S(=O)(=O)NC4CCOCC4)cc3)nn([C@H]3CC[C@H](O)CC3)c2n1 [Compound 26, trans-4-(6-(Butylamino)-1-(4-hydroxycyclohexyl)-1H-pyrazolo[3,4-d]pyrimidin-3-yl)-N-(tetrahydro-2H-pyran-4-yl)benzenesulfonamide] | 

From publication PMC3720808 (European journal of medicinal chemistry, 2013)
